From patent publication US20110136666A1, “CHEMICAL COMPOUNDS” (SYNGENTA CROP PROTECTION, INC., priority 2008, published 2011)

Tests used:
Type in all cases: in vivo
[1] = system: Alopecurus myosuroides (ALOMY); assay: Pre-emergence biological efficacy, glasshouse pot test; conditions: 312 h, after 13 days, 100=total damage, 0=no damage, read-out: Percentage damage caused to weed species ALOMY
Method: (§1) Seeds of Alopecurus myosuroides (ALOMY), Setaria faberi (SETFA), Echinochloa crus-galli (ECHCG), Solanum nigrum (SOLNI), Amaranthus retroflexus (AMARE) and Ipomea hederaceae (IPOHE) were sown in standard soil in pots. After cultivation for one day under controlled conditions in a glasshouse (at 24/16° C., day/night; 14 hours light; 65% humidity), the plants were sprayed with an aqueous spray solution derived from the formulation of the technical active ingredient in acetone/water (50:50) solution containing 0.5% Tween 20 (polyoxyethylene sorbitan monolaurate, CAS RN 9005-64-5) to give a final dose of 250 or 1000 g/ha of test compound.
(§2) The test plants were then grown under controlled conditions in the glasshouse (at 24/16° C., day/night; 14 hours light; 65% humidity) and watered twice daily. After 13 days the test was evaluated (100=total damage to plant; 0=no damage to plant).

[2] = system: Amaranthus retroflexus (AMARE); assay: as above; conditions: 312 h, after 13 days, 100=total damage, 0=no damage, read-out: Percentage damage caused to weed species AMARE
Method: as §1, §2

[3] = system: Echinochloa crus-galli (ECHCG); assay: as above; conditions: 312 h, after 13 days, 100=total damage, 0=no damage, read-out: Percentage damage caused to weed species ECHCG
Method: as §1, §2

[4] = system: Ipomea hederaceae (IPOHE); assay: as above; conditions: Ipomoea hederacea, 312 h, after 13 days, 100=total damage, 0=no damage, read-out: Percentage damage caused to weed species IPOHE
Method: as §1, §2

[5] = system: Setaria faberi (SETFA); assay: as above; conditions: 312 h, after 13 days, 100=total damage, 0=no damage, read-out: Percentage damage caused to weed species SETFA
Method: as §1, §2

[6] = system: Solanum nigrum (SOLNI); assay: as above; conditions: 312 h, after 13 days, 100=total damage, 0=no damage, read-out: Percentage damage caused to weed species SOLNI
Method: as §1, §2

[7] = system: Alopecurus myosuroides (ALOMY); assay: Post-emergence biological efficacy, glasshouse pot test; conditions: 312 h, after 13 days, 100=total damage, 0=no damage, read-out: Percentage damage caused to weed species ALOMY
Method: as §1, with “8 days” for “one day”
(§3) The test plants were then grown on under controlled conditions in a glasshouse (at 24/16° C., day/night; 14 hours light; 65% humidity) and watered twice daily. After 13 days the test was evaluated (100=total damage to plant; 0=no damage to plant).

[8] = system: Amaranthus retroflexus (AMARE); assay: as above; conditions: 312 h, after 13 days, 100=total damage, 0=no damage, read-out: Percentage damage caused to weed species AMARE
Method: as §1, with “8 days” for “one day”
as §3

[9] = system: Echinochloa crus-galli (ECHCG); assay: as above; conditions: 312 h, after 13 days, 100=total damage, 0=no damage, read-out: Percentage damage caused to weed species ECHCG
Method: as §1, with “8 days” for “one day”
as §3

[10] = system: Ipomea hederaceae (IPOHE); assay: as above; conditions: Ipomoea hederacea, 312 h, after 13 days, 100=total damage, 0=no damage, read-out: Percentage damage caused to weed species IPONE
Method: as §1, with “8 days” for “one day”
as §3

[11] = system: Setaria faberi (SETFA); assay: as above; conditions: 312 h, after 13 days, 100=total damage, 0=no damage, read-out: Percentage damage caused to weed species SETFA
Method: as §1, with “8 days” for “one day”
as §3

[12] = system: Solanum nigrum (SOLNI); assay: as above; conditions: 312 h, after 13 days, 100=total damage, 0=no damage, read-out: Percentage damage caused to weed species SOLNI
Method: as §1, with “8 days” for “one day”
as §3

Row | Structure (SMILES) | pest or weed control at 1000 g/ha [1] | pest or weed control at 1000 g/ha [2] | pest or weed control at 1000 g/ha [3] | pest or weed control at 1000 g/ha [4] | pest or weed control at 1000 g/ha [5] | pest or weed control at 1000 g/ha [6] | pest or weed control at 1000 g/ha [7] | pest or weed control at 1000 g/ha [8] | pest or weed control at 1000 g/ha [9] | pest or weed control at 1000 g/ha [10] | pest or weed control at 1000 g/ha [11] | pest or weed control at 1000 g/ha [12] | pest or weed control at 250 g/ha [1] | pest or weed control at 250 g/ha [2] | pest or weed control at 250 g/ha [3] | pest or weed control at 250 g/ha [4] | pest or weed control at 250 g/ha [5] | pest or weed control at 250 g/ha [6] | pest or weed control at 250 g/ha [7] | pest or weed control at 250 g/ha [8] | also measured
1 | COC(=O)c1nc(-c2cncc3ccccc23)nc(N)c1Cl [Compound 2-196, 4-Amino-5-chloro-2-isoquinolin-4-yl-6-methoxycarbonyl pyrimidine] | 0% | 0% | 0% | 0% | 0% | 0% | 0% | 0% | 0% | 0% | 0% | 0% |  |  |  |  |  |  |  |  | 
2 | COC(=O)c1nc(-c2ccsc2)nc(N)c1Cl [Compound 2-16, 4-Amino-5-chloro-6-methoxycarbonyl-2-thiophen-3-ylpyrimidine] |  |  |  |  |  |  |  |  |  |  |  |  | 10% | 90% | 0% | 0% | 0% | 30% | 20% | 0% | pest or weed control at 250 g/ha [9]: 0%; pest or weed control at 250 g/ha [10]: 40%; pest or weed control at 250 g/ha [11]: 0%; pest or weed control at 250 g/ha [12]: 0%
3 | COC(=O)c1nc(-c2ccc(C(C)=O)s2)nc(N)c1Cl [Compound 2-9, 4-Amino-5-chloro-6-methoxycarbonyl-2-(5-methylcarbonyl-thiophen-2-yl)-pyrimidine] |  |  |  |  |  |  |  |  |  |  |  |  | 0% | 0% | 0% | 0% | 0% | 0% | 0% | 0% | pest or weed control at 250 g/ha [9]: 0%; pest or weed control at 250 g/ha [10]: 0%; pest or weed control at 250 g/ha [11]: 0%; pest or weed control at 250 g/ha [12]: 0%
4 | COC(=O)c1nc(-c2ccc(Cl)nc2)nc(N)c1Cl [Compound 2-156, 4-Amino-5-chloro-2-(2-chloropyridin-5-yl)-6-methoxycarbonyl pyrimidine] | 0% | 70% | 0% | 0% | 0% | 60% | 40% | 100% | 30% | 70% | 40% | 80% |  |  |  |  |  |  |  |  | 
5 | COC(=O)c1nc(-c2csc3ccccc23)nc(N)c1Cl [Compound 2-56, 4-Amino-2-(benzothiophen-3-yl)-5-chloro-6-methoxycarbonyl pyrimidine] | 0% | 60% | 0% | 0% | 0% | 0% | 20% | 100% | 40% | 20% | 10% | 40% |  |  |  |  |  |  |  |  | 
6 | CCOC(=O)c1nc(-c2ccc(C(F)(F)F)cn2)nc(N)c1Cl [Compound 3-150, 4-amino-5-chloro-6-ethoxycarbonyl-2-(5-trifluoromethylpyridin-2-yl)-pyrimidine] | 0% | 0% | 0% | 0% | 0% | 0% | 0% | 0% | 0% | 0% | 0% | 0% |  |  |  |  |  |  |  |  | 
